Assay results: PubChem BioAssay AID2060600 (Molecular Pharmacology Branch, DTP, NCI, 2025)

System: 996289-038-R-J1-PDC complex spheroid viability
Assay: Anticancer human tumor 996289-038-R-J1-PDC patient-derived colon adenocarcinoma cell line growth inhibition [CLK]
Details: for IC50: curve of first compound; for viability, T/C: stronger effect = lower value
Procedure, shortened: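 Patient-derived tumor cells grown as complex spheroids with HUVEC endothelial cells and mesenchymal stem cells, treated with drug combinations. Concentrations descend in half-log steps from near clinical Cmax, or from 10 microM if Cmax unknown.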

[1] = second compound 0.0316 µM, first compound 0.00949 µM
[2] = second compound 0.0316 µM, first compound 0.03 µM
[3] = second compound 0.0316 µM, first compound 0.0949 µM
[4] = second compound 0.0316 µM, first compound 0.3 µM
[5] = second compound 0.1 µM, first compound 0.00949 µM
[6] = second compound 0.1 µM, first compound 0.03 µM
[7] = second compound 0.1 µM, first compound 0.0949 µM
[8] = second compound 0.1 µM, first compound 0.3 µM
[9] = second compound 0.316 µM, first compound 0.00949 µM
[10] = second compound 0.316 µM, first compound 0.03 µM
[11] = second compound 0.316 µM, first compound 0.0949 µM
[12] = second compound 0.316 µM, first compound 0.3 µM
[13] = second compound 1 µM, first compound 0.00949 µM
[14] = second compound 1 µM, first compound 0.03 µM
[15] = second compound 1 µM, first compound 0.0949 µM
[16] = second compound 1 µM, first compound 0.3 µM
[17] = second compound 3.16 µM, first compound 0.00949 µM
[18] = second compound 3.16 µM, first compound 0.03 µM
[19] = second compound 3.16 µM, first compound 0.0949 µM
[20] = second compound 3.16 µM, first compound 0.3 µM
[21] = second compound 10 µM, first compound 0.00949 µM
[22] = second compound 10 µM, first compound 0.03 µM
[23] = second compound 10 µM, first compound 0.0949 µM
[24] = second compound 10 µM, first compound 0.3 µM
[25] = second compound 0.0316 µM, first compound 0.0316 µM
[26] = second compound 0.0316 µM, first compound 0.1 µM
[27] = second compound 0.0316 µM, first compound 0.316 µM
[28] = second compound 0.0316 µM, first compound 1 µM
[29] = second compound 0.0316 µM, first compound 3.16 µM
[30] = second compound 0.0316 µM, first compound 10 µM
[31] = second compound 0.1 µM, first compound 0.0316 µM
[32] = second compound 0.1 µM, first compound 0.1 µM
[33] = second compound 0.1 µM, first compound 0.316 µM
[34] = second compound 0.1 µM, first compound 1 µM
[35] = second compound 0.1 µM, first compound 3.16 µM
[36] = second compound 0.1 µM, first compound 10 µM
[37] = second compound 0.316 µM, first compound 0.0316 µM
[38] = second compound 0.316 µM, first compound 0.1 µM
[39] = second compound 0.316 µM, first compound 0.316 µM
[40] = second compound 0.316 µM, first compound 1 µM
[41] = second compound 0.316 µM, first compound 3.16 µM
[42] = second compound 0.316 µM, first compound 10 µM
[43] = second compound 1 µM, first compound 0.0316 µM
[44] = second compound 1 µM, first compound 0.1 µM
[45] = second compound 1 µM, first compound 0.316 µM
[46] = second compound 1 µM, first compound 1 µM
[47] = second compound 1 µM, first compound 3.16 µM
[48] = second compound 1 µM, first compound 10 µM
[49] = second compound 3.16 µM, first compound 0.0316 µM
[50] = second compound 3.16 µM, first compound 0.1 µM
[51] = second compound 3.16 µM, first compound 0.316 µM
[52] = second compound 3.16 µM, first compound 1 µM
[53] = second compound 3.16 µM, first compound 3.16 µM
[54] = second compound 3.16 µM, first compound 10 µM
[55] = second compound 10 µM, first compound 0.0316 µM
[56] = second compound 10 µM, first compound 0.1 µM
[57] = second compound 10 µM, first compound 0.316 µM
[58] = second compound 10 µM, first compound 1 µM
[59] = second compound 10 µM, first compound 3.16 µM
[60] = second compound 10 µM, first compound 10 µM
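Also: spheroids exposed to the agents for 7 days before readout.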

C=CC(=O)Nc1cc(Nc2nccc(-c3cn(C)c4ccccc34)n2)c(OC)cc1N(C)CCN(C)C + CN1CCN(c2cc(C(=O)Nc3cc4cc(-c5cnn(C)c5)ccc4cn3)ccn2)CC1
IC50 (second compound 0.0316 µM): > 300 nM
IC50 (second compound 0.1 µM): > 300 nM
IC50 (second compound 0.316 µM): 91 nM
IC50 (second compound 1 µM): < 0.949 nM
IC50 (second compound 3.16 µM): < 0.949 nM
IC50 (second compound 10 µM): < 0.949 nM
viability, T/C (second compound 0.0316 µM, first compound 0.000949 µM): 104%
viability, T/C (second compound 0.0316 µM, first compound 0.003 µM): 104%
viability, T/C [1]: 105%
viability, T/C [2]: 103%
viability, T/C [3]: 99.8%
viability, T/C [4]: 74.7%
viability, T/C (second compound 0.1 µM, first compound 0.000949 µM): 93.7%
viability, T/C (second compound 0.1 µM, first compound 0.003 µM): 93.7%
viability, T/C [5]: 91.2%
viability, T/C [6]: 84.4%
viability, T/C [7]: 86%
viability, T/C [8]: 65.9%
viability, T/C (second compound 0.316 µM, first compound 0.000949 µM): 74.2%
viability, T/C (second compound 0.316 µM, first compound 0.003 µM): 69%
viability, T/C [9]: 63.5%
viability, T/C [10]: 56.8%
viability, T/C [11]: 53.5%
viability, T/C [12]: 37.2%
viability, T/C (second compound 1 µM, first compound 0.000949 µM): 6.28%
viability, T/C (second compound 1 µM, first compound 0.003 µM): 6.22%
viability, T/C [13]: 7.21%
viability, T/C [14]: 6.93%
viability, T/C [15]: 4.43%
viability, T/C [16]: 1.67%
viability, T/C (second compound 3.16 µM, first compound 0.000949 µM): 0.79%
viability, T/C (second compound 3.16 µM, first compound 0.003 µM): 1.11%
viability, T/C [17]: 1.16%
viability, T/C [18]: 1.29%
viability, T/C [19]: 0.93%
viability, T/C [20]: 0.71%
viability, T/C (second compound 10 µM, first compound 0.000949 µM): 1.47%
viability, T/C (second compound 10 µM, first compound 0.003 µM): 0.58%
viability, T/C [21]: 0.99%
viability, T/C [22]: 1.04%
viability, T/C [23]: 0.51%
viability, T/C [24]: 1.04%

CC1(C)CCC(CN2CCN(c3ccc(C(=O)NS(=O)(=O)c4ccc(NCC5CCOCC5)c([N+](=O)[O-])c4)c(Oc4cnc5[nH]ccc5c4)c3)CC2)=C(c2ccc(Cl)cc2)C1 + CN1CCN(c2cc(C(=O)Nc3cc4cc(-c5cnn(C)c5)ccc4cn3)ccn2)CC1
IC50 (second compound 0.0316 µM): 8460 nM
IC50 (second compound 0.1 µM): 6780 nM
IC50 (second compound 0.316 µM): 5350 nM
IC50 (second compound 1 µM): < 31.6 nM
IC50 (second compound 3.16 µM): < 31.6 nM
IC50 (second compound 10 µM): < 31.6 nM
viability, T/C [25]: 107%
viability, T/C [26]: 92.1%
viability, T/C [27]: 99.5%
viability, T/C [28]: 104%
viability, T/C [29]: 111%
viability, T/C [30]: 41%
viability, T/C [31]: 93.1%
viability, T/C [32]: 92.7%
viability, T/C [33]: 91.3%
viability, T/C [34]: 102%
viability, T/C [35]: 92.1%
viability, T/C [36]: 28.4%
viability, T/C [37]: 72.2%
viability, T/C [38]: 70.9%
viability, T/C [39]: 74.3%
viability, T/C [40]: 71.2%
viability, T/C [41]: 80.5%
viability, T/C [42]: 21.6%
viability, T/C [43]: 5.73%
viability, T/C [44]: 6.71%
viability, T/C [45]: 6.34%
viability, T/C [46]: 6.11%
viability, T/C [47]: 7.84%
viability, T/C [48]: 4.96%
viability, T/C [49]: 3.72%
viability, T/C [50]: 2.29%
viability, T/C [51]: 1.42%
viability, T/C [52]: 3.37%
viability, T/C [53]: 1.39%
viability, T/C [54]: 1.49%
viability, T/C [55]: 2.97%
viability, T/C [56]: 0.51%
viability, T/C [57]: 2.24%
viability, T/C [58]: 0.81%
viability, T/C [59]: 0.61%
viability, T/C [60]: 0.62%

NC(=O)C(=Cn1cnc(-c2cc(C(F)(F)F)cc(C(F)(F)F)c2)n1)c1cncnc1 + CN1CCN(c2cc(C(=O)Nc3cc4cc(-c5cnn(C)c5)ccc4cn3)ccn2)CC1
IC50 (second compound 0.0316 µM): 53.7 nM
IC50 (second compound 0.1 µM): 29.4 nM
IC50 (second compound 0.316 µM): < 9.49 nM
IC50 (second compound 1 µM): < 9.49 nM
IC50 (second compound 3.16 µM): < 9.49 nM
IC50 (second compound 10 µM): < 9.49 nM
viability, T/C [1]: 73.6%
viability, T/C [2]: 64%
viability, T/C [3]: 36.1%
viability, T/C [4]: 18.6%
viability, T/C (second compound 0.0316 µM, first compound 0.949 µM): 10.6%
viability, T/C (second compound 0.0316 µM, first compound 3 µM): 11.7%
viability, T/C [5]: 68%
viability, T/C [6]: 49.7%
viability, T/C [7]: 24.9%
viability, T/C [8]: 11.1%
viability, T/C (second compound 0.1 µM, first compound 0.949 µM): 4.64%
viability, T/C (second compound 0.1 µM, first compound 3 µM): 5.12%
viability, T/C [9]: 33.9%
viability, T/C [10]: 19.1%
viability, T/C [11]: 2.74%
viability, T/C [12]: 0.87%
viability, T/C (second compound 0.316 µM, first compound 0.949 µM): 1.43%
viability, T/C (second compound 0.316 µM, first compound 3 µM): 1.38%
viability, T/C [13]: 0.93%
viability, T/C [14]: 0.76%
viability, T/C [15]: 0.81%
viability, T/C [16]: 1.31%
viability, T/C (second compound 1 µM, first compound 0.949 µM): 1.15%
viability, T/C (second compound 1 µM, first compound 3 µM): 2.01%
viability, T/C [17]: 1.17%
viability, T/C [18]: 0.72%
viability, T/C [19]: 1.2%
viability, T/C [20]: 1.12%
viability, T/C (second compound 3.16 µM, first compound 0.949 µM): 1.5%
viability, T/C (second compound 3.16 µM, first compound 3 µM): 2.18%
viability, T/C [21]: 0.52%
viability, T/C [22]: 0.5%
viability, T/C [23]: 0.74%
viability, T/C [24]: 0.52%
viability, T/C (second compound 10 µM, first compound 0.949 µM): 0.45%
viability, T/C (second compound 10 µM, first compound 3 µM): 1.52%

Nc1ccccc1NC(=O)c1ccc(CNC(=O)OCc2cccnc2)cc1 + CN1CCN(c2cc(C(=O)Nc3cc4cc(-c5cnn(C)c5)ccc4cn3)ccn2)CC1
IC50 (second compound 0.0316 µM): 6350 nM
IC50 (second compound 0.1 µM): 5030 nM
IC50 (second compound 0.316 µM): 2330 nM
IC50 (second compound 1 µM): < 31.6 nM
IC50 (second compound 3.16 µM): < 31.6 nM
IC50 (second compound 10 µM): < 31.6 nM
viability, T/C [25]: 99.7%
viability, T/C [26]: 103%
viability, T/C [27]: 91.4%
viability, T/C [28]: 81.7%
viability, T/C [29]: 61.8%
viability, T/C [30]: 42.3%
viability, T/C [31]: 110%
viability, T/C [32]: 88.1%
viability, T/C [33]: 83.7%
viability, T/C [34]: 71.1%
viability, T/C [35]: 60%
viability, T/C [36]: 38.3%
viability, T/C [37]: 70.1%
viability, T/C [38]: 64.8%
viability, T/C [39]: 64.3%
viability, T/C [40]: 60.4%
viability, T/C [41]: 46.4%
viability, T/C [42]: 20.9%
viability, T/C [43]: 8.94%
viability, T/C [44]: 5.54%
viability, T/C [45]: 6.13%
viability, T/C [46]: 3.31%
viability, T/C [47]: 1.46%
viability, T/C [48]: 1.42%
viability, T/C [49]: 0.74%
viability, T/C [50]: 0.78%
viability, T/C [51]: 0.83%
viability, T/C [52]: 2.18%
viability, T/C [53]: 1.99%
viability, T/C [54]: 1.71%
viability, T/C [55]: 0.41%
viability, T/C [56]: 1.24%
viability, T/C [57]: 1.06%
viability, T/C [58]: 0.6%
viability, T/C [59]: 0.7%
viability, T/C [60]: 1.88%
